Laboratory results as given in ChEMBL document CHEMBL4364252, “Tetrahydropyrazolo[1,5-a]pyridine-fused steroids and their in vitro biological evaluation in prostate cancer” (2019).
Active and inactive are the calls of the source. The calls are words filed in the database; no cut-off is given here.

Assays:
[1] = system: LAPC4; assay: Antiproliferative activity against AR-positive human LAPC4 cells assessed as cell viability at 10 uM measured after 72 hrs by resazurin dye based fluorescence assay relative to control; assay type: functional; settings: LAPC4, 72 h, read-out: Activity
[2] = system: PC-3; assay: Antiproliferative activity against AR-negative human PC3 cells assessed as cell viability at 10 uM measured after 72 hrs by resazurin dye based fluorescence assay relative to control; assay type: functional; settings: PC-3, 72 h, read-out: Activity
[3] = system: CWR22R; assay: Induction of apoptosis in R1881-activated AR-positive human 22Rv1 cells harboring ARE14 construct assessed as cleaved PARP level at 5 to 20 uM after 24 hrs by immunoblot analysis; assay type: functional, cell-based
[4] = system: LNCaP; assay: Antiproliferative activity against AR-positive human LNCAP cells assessed as cell viability at 10 uM measured after 72 hrs by resazurin dye based fluorescence assay relative to control; assay type: functional; settings: read-out: Activity
[5] = system: CWR22R; assay: Antiproliferative activity against AR-positive human 22Rv1 cells harboring ARE14 construct assessed as cell viability at 10 uM measured after 72 hrs by resazurin dye based fluorescence assay relative to control; assay type: functional; settings: 22Rv1, 72 h, read-out: Activity
[6] = system: VCaP; assay: Induction of apoptosis in AR-positive human VCaP cells assessed as cleaved PARP level at 5 to 20 uM after 24 hrs by immunoblot analysis; assay type: functional, cell-based
[7] = system: VCaP; assay: Antiproliferative activity against AR-positive human VCaP cells assessed as cell viability at 10 uM measured after 72 hrs by resazurin dye based fluorescence assay relative to control; assay type: functional; settings: read-out: Activity
[8] = target: T1, Androgen receptor (Homo sapiens) (UniProt P10275); assay: Inhibition of R1881 induced-AR transcriptional activity in AR-positive human 22Rv1 cells harboring ARE14 construct after 24 hrs by luciferase assay
T1 sequence (whole entry): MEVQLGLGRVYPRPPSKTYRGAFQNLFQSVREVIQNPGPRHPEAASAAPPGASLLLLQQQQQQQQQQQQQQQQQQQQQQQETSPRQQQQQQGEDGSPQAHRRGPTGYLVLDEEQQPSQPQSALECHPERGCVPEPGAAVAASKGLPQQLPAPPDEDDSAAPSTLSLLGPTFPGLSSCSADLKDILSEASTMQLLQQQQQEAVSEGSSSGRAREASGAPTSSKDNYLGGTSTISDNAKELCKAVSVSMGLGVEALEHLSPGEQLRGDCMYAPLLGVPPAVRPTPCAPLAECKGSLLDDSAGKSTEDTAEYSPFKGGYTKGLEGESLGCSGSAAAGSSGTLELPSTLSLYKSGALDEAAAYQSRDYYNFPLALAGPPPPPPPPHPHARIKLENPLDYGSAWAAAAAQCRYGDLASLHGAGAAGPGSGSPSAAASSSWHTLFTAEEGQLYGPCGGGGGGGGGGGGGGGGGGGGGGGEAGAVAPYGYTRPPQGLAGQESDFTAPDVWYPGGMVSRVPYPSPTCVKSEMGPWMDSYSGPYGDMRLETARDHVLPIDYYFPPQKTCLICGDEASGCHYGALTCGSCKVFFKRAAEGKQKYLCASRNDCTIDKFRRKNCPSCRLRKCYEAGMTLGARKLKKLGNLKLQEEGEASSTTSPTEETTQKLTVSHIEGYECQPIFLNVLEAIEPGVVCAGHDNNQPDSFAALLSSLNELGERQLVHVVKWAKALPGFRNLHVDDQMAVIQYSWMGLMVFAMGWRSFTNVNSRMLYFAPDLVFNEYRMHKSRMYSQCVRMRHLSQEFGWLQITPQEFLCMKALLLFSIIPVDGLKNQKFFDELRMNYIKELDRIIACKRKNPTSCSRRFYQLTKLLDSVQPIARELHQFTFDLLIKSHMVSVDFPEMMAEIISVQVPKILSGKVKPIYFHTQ

[9] = system: CWR22R; assay: Antiproliferative activity against human AR-positive 22Rv1 cells harboring ARE14 construct assessed as growth inhibition measured after 72 hrs by resazurin dye based fluorescence assay; assay type: functional; settings: 22Rv1, 72 h
[10] = system: VCaP; assay: Antiproliferative activity against AR-positive human VCaP cells assessed as growth inhibition measured after 72 hrs by resazurin dye based fluorescence assay; assay type: functional
[11] = system: PC-3; assay: Antiproliferative activity against AR-negative human PC3 cells assessed as cell viability at 40 uM measured after 72 hrs by resazurin dye based fluorescence assay relative to control; assay type: functional; settings: PC-3, 72 h, read-out: Activity
[12] = target: T1, Androgen receptor (Homo sapiens); settings: at 10 µM
Description: Inhibition of AR transcriptional activity in AR-positive human 22Rv1 cells harboring ARE14 construct assessed as suppression of NKX3.1 expression at 10 uM after 24 hrs by immunoblot analysis

[13] = system: CWR22R; assay: Effect on AR-V7 variant protein expression in AR-positive human 22Rv1 cells harboring ARE14 construct at 10 uM after 24 hrs by immunoblot analysis; assay type: functional, cell-based
[14] = system: VCaP; assay: Antiproliferative activity against AR-positive human VCaP cells assessed as cell viability at 40 uM measured after 72 hrs by resazurin dye based fluorescence assay relative to control; assay type: functional; settings: read-out: Activity
[15] = target: T1, Androgen receptor (Homo sapiens); assay: Inhibition of AR transcriptional activity in AR-positive human VCaP cells assessed as PSA protein expression at 5 to 20 uM after 24 hrs by immunoblot analysis; assay type: cell-based
[16] = target: T1, Androgen receptor (Homo sapiens); assay: Inhibition of R1881 induced-AR transcriptional activity in AR-positive human 22Rv1 cells harboring ARE14 construct assessed as luciferase activity at 10 uM after 24 hrs by luciferase assay relative to control; design: scale not given: the % may be the effect or the level left
[17] = target: T1, Androgen receptor (Homo sapiens); assay: Inhibition of AR transcriptional activity in AR-positive human VCaP cells assessed as decrease in NKX3.1 protein expression at 20 uM upto 72 hrs by immunoblot analysis; assay type: cell-based
[18] = target: T1, Androgen receptor (Homo sapiens); assay: Inhibition of AR transcriptional activity in AR-positive human VCaP cells assessed as NKX3.1 protein expression at 5 to 20 uM after 24 hrs by immunoblot analysis; assay type: cell-based
[19] = system: LAPC4; assay: Antiproliferative activity against AR-positive human LAPC4 cells assessed as growth inhibition measured after 72 hrs by resazurin dye based fluorescence assay; assay type: functional; settings: LAPC4, 72 h
[20] = target: T1, Androgen receptor (Homo sapiens); assay: Inhibition of AR transcriptional activity in AR-positive human VCaP cells assessed as decrease in PSA protein expression at 20 uM after 48 hrs by immunoblot analysis; assay type: cell-based
[21] = target: T1, Androgen receptor (Homo sapiens); settings: at 10 µM; remark: listed apart in the source
Description: Inhibition of AR transcriptional activity in AR-positive human 22Rv1 cells harboring ARE14 construct assessed as suppression of PSA expression at 10 uM after 24 hrs by immunoblot analysis

[22] = system: CWR22R; assay: Inhibition of colony formation in AR-positive human 22Rv1 cells harboring ARE14 construct at 1.25 to 20 uM incubated for 10 days by crystal violet staining; assay type: functional, cell-based
[23] = system: LAPC4; assay: Antiproliferative activity against AR-positive human LAPC4 cells assessed as cell viability at 40 uM measured after 72 hrs by resazurin dye based fluorescence assay relative to control; assay type: functional; settings: LAPC4, 72 h, read-out: Activity
[24] = system: LNCaP; assay: Antiproliferative activity against AR-positive human LNCAP cells assessed as cell viability at 40 uM measured after 72 hrs by resazurin dye based fluorescence assay relative to control; assay type: functional; settings: read-out: Activity
[25] = system: PC-3; assay: Antiproliferative activity against AR-negative human PC3 cells assessed as growth inhibition measured after 72 hrs by resazurin dye based fluorescence assay; assay type: functional; settings: PC-3, 72 h
[26] = system: CWR22R; assay: Antiproliferative activity against AR-positive human 22Rv1 cells harboring ARE14 construct assessed as cell viability at 40 uM measured after 72 hrs by resazurin dye based fluorescence assay relative to control; assay type: functional; settings: 22Rv1, 72 h, read-out: Activity
[27] = system: LNCaP; assay: Antiproliferative activity against AR-positive human LNCAP cells assessed as growth inhibition measured after 72 hrs by resazurin dye based fluorescence assay; assay type: functional

With C[C@]12CC[C@H](O)CC1=CC[C@@H]1[C@@H]2CC[C@]2(C)C(n3cnc4ccccc43)=CC[C@@H]12 [GALETERONE] the viability at 10 µM [1] was 92.8%, the viability at 10 µM [2] was over 100% and the Activity [3] was “Active”. The viability at 10 µM [4] was 91.6%, the viability at 10 µM [5] was over 100% and the Activity [6] was “Active”. It also gave a viability at 10 µM [7] of 72.9%.

In the case of COC(=O)c1cnn2c1C[C@]1(C(C)=O)[C@@H](C[C@H]3[C@@H]4CCC5=CC(=O)CC[C@]5(C)[C@H]4CC[C@@]31C)C2, the inhibition [8] is reported as “Dose-dependent effect”, the GI50 [9] is reported as over 40 µM and the GI50 [10] is reported as over 40 µM. For the same compound, the viability at 40 µM [11] was 98.3%, the inhibition [12] was “Active” and the Activity [13] was “inactive”. For the same compound, the viability at 40 µM [14] was 85.1%, the inhibition [15] was “inactive” and the Activity [3] was “Active”. The Activity [16] was 40%, the inhibition [17] was “Active” and the inhibition [18] was “inactive”. For the same compound, the GI50 [19] was over 40 µM, the inhibition [20] was “Active” and the inhibition [21] was “Active”. The inhibition [22] was “Active”, the viability at 40 µM [23] was 95.1% and the Activity [6] was “Active”. The viability at 40 µM [24] was 77.3%, the GI50 [25] was over 40 µM and the viability at 40 µM [26] was 80.4%. The GI50 [27] was over 40 µM.
